Consider 1 molecule from patent publication US10898460B1, “Leishmania inhibitors” (University of South Florida, priority 2018, dated 2021).

The subject of the assay is Leishmania donovani. The experiment in a line: Bioassay against Leishmania donovani. It is filed as cell-based. An excerpt:
Marine invertebrates from Antarctica have been investigated for their potential natural product chemistry. Often sessile, these organisms must develop chemical protective mechanisms to survive and defend themselves against predators. The biodiversity of these organisms is of particular interest due to the extremely low temperatures and the circumpolar current around the Antarctic continent serving as an ecological isolating shield. The chemodiversity that emanates from these organisms can be a significant source of chemistry to be further developed into new drugs. The chemical investigation of an undescribed Gersemia sp. Antarctic coral has led to the isolation of two different kinds of bioactive compounds. After lyophilization of the organism, two different extractions were performed: the first one used a methylene chloride: methanol (1:1) solvent mixture, and the second one used methylene chloride only as solvent in a Soxhlet extraction. […] One and two-dimensional nuclear magnetic resonance, mass spectrometry, X-ray crystallography, and circular dichroism were the methods performed to elucidate and confirm the structures. Furthermore, biological testing against Leishmania sp. and ESKAPE pathogens, Zika virus, Clostridium difficile, and HeLa cancer cells were performed.
Table 1 details the bioactivity of two Alcyopterosins and ACDL-21.

What is called IC50 is the concentration that gives 50% inhibition. In turn, `Cc1cc2c(c3c1[C@H](CO[N+](=O)[O-])OC3=O)CC(C)(C)C2` [Alcyopterosin E (2), alcyopterosin E] registered a 50% inhibitory concentration (IC50) of 3.1 µM.
